Measurements taken from PMC8036409 (Molecules, 2021).
Where “and” joins values, the source holds several entries; their conditions need not be identical. Identical values can stand only once. Counter-ions that a name gives are not always drawn. Like-named read-outs stand apart in the source and are kept apart here.

How the values were obtained:
α-amylase = assay: α-Amylase inhibition assay (DNS method); assay type: biochemical; conditions: for Percent Inhibition of α-Amylase (Mean ± S.E.M): n = 3
Method: The degree of inhibition was assessed by quantifying maltose equivalents using a slightly modified dinitrosalicylic acid (DNS) method. From each of the sample dilutions, 1 mL was pre-incubated with 1 U/mL α-amylase for half an hour. After incubation, 1 mL of 1% of starch solution was added to the mixture and further incubated for 10 min. To stop the reaction, 1 mL DNS reagent was added to the reaction mixture and heated in a boiling water bath for 5 min. […] The absorbance was measured at 540 nm.

α-glucosidase = α-glucosidase (Saccharomyces cerevisiae, UniProt P53341); assay: α-Glucosidase inhibition assay; assay type: biochemical
Method: α-Glucosidase (0.5 unit/mL) was mixed with phosphate buffer (0.1 M, pH 6.9) to make enzyme stock solution. Likewise, a substrate solution (p-nitrophenyl-α-D-glucopyranoside) was also prepared in phosphate buffer. Each of the sample dilutions was mixed with 1 mL of the enzyme solution separately and incubated at 37 °C for 15 min. Sodium carbonate solution (80 µL of 0.2 M) was added to the reaction mixture to stop the reaction, and the absorbance was measured at 405 nm. The % enzyme inhibition was calculated as (5) % inhibition=Control absorbance−Test absorbance /Control absorbance × 100

[1] = DPPH free radical scavenging assay; conditions: for DPPH Percent Inhibition (Mean ± S.E.M): n = 3
Method: (§1) The free radical scavenging capacity of the isolated compounds was determined using DPPH and ABTS assays. To prepare the DPPH stock solution, 30 mg of DPPH was dissolved in 100 mL of methanol. Likewise, to prepare ABTS stock solution, 383 mg of 7 mM ABTS and 66.2 mg of 2.45 mM K2S2O8 were taken, each of them was individually dissolved in 100 mL of methanol and mixed together thoroughly. For the free radical development, the solutions were kept in dark for one day. Different dilutions (62.5, 125, 250, 500, 1000 μg/mL) from each of the sample stock solutions (5 mg/5 mL of methanol) were prepared. Each of the dilutions (0.8 mL) was mixed with 0.8 mL of DPPH stock solution and incubated for 15 min and their absorbance was recorded at 515 nm. Likewise, 0.8 mL of each of the same dilutions was mixed with 2 mL of ABTS solution, incubated for 25 min and their absorbance was recorded at 745 nm. The percent scavenging potentials of compounds were calculated using the following equation:(1) Percent scavenging= A−B/A × 100, where A is the absorbance of oxidized stock (DPPH/ABTS) used as control, and B is the absorbance of the sample.

[2] = ABTS free radical scavenging assay; conditions: for ABTS Percent Inhibition (Mean ± S.E.M): n = 3
Method: as §1

[3] = target: T1, acetylcholinesterase (AChE) (Homo sapiens, UniProt P22303); assay: biochemical; conditions: for inhibition at 250 µg/mL / inhibition at 500 µg/mL / inhibition at 1000 µg/mL / inhibition at 125 µg/mL: read-out: Percent AChE (Mean ± SEM), %inhibition
Method: (§2) AChE and BChE were used as representative enzymes to determine the anticholinesterase effect of isolated compounds using Ellman’s assay with slight modifications. Sample stocks (5 mg/5 mL in methanol) were prepared and a range of serial dilutions (125, 250, 500, 1000 μg/mL) was made from each of them. Phosphate buffer (6.8 pH) was used for making the enzyme and substrate solutions.

[4] = target: T2, butyrylcholinesterase (BChE) (Homo sapiens, UniProt P06276); assay: Butyrylcholinesterase inhibition, Ellman's assay; assay type: biochemical; conditions: for inhibition at 125 µg/mL / inhibition at 250 µg/mL / inhibition at 500 µg/mL / inhibition at 1000 µg/mL: read-out: Percent BChE (Mean ± SEM), %inhibition
Method: as §2

[5] = target: T2, butyrylcholinesterase (BChE); assay: Butyrylcholinesterase inhibition, Ellman's assay; assay type: biochemical; conditions: read-out: Percent BChE (Mean ± SEM), %inhibition
[6] = target: T1, acetylcholinesterase (AChE); assay: biochemical; conditions: read-out: Percent AChE (Mean ± SEM), %inhibition
[7] = read-out: AChE IC50 (converted)

Chain of α-glucosidase (P53341 whole entry): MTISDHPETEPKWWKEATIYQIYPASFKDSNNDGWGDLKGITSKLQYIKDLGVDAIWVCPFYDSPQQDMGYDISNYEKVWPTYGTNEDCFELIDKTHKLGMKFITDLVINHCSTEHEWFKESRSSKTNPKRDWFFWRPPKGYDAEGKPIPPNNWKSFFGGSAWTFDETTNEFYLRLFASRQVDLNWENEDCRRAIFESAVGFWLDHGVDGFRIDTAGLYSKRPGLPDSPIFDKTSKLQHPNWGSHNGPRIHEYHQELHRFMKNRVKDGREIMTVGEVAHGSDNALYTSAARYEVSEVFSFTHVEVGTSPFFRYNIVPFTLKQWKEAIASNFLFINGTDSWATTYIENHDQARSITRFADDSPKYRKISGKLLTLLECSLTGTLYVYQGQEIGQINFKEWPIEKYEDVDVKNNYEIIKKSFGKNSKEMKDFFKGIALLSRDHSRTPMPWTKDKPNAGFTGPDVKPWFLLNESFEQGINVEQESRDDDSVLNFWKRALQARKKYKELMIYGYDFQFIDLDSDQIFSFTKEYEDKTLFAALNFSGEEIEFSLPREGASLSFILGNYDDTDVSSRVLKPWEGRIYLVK
T2 sequence (P06276 29-602, species assumed): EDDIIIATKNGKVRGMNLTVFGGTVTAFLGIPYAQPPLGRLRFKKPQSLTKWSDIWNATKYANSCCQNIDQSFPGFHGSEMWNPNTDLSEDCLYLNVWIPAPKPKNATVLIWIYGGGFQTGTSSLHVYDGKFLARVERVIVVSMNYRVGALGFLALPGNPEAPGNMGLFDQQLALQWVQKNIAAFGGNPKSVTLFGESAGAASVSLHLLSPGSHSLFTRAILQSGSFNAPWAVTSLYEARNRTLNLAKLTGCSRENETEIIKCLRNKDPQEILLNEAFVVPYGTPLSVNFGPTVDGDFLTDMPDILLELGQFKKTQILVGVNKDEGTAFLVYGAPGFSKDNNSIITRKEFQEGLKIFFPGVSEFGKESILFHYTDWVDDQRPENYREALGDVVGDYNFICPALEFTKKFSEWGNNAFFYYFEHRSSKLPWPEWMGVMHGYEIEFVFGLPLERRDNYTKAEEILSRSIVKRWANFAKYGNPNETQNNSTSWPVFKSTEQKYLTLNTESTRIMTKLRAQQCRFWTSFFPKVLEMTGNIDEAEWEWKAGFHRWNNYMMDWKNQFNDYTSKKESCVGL
T1 sequence (P22303 32-614, species assumed): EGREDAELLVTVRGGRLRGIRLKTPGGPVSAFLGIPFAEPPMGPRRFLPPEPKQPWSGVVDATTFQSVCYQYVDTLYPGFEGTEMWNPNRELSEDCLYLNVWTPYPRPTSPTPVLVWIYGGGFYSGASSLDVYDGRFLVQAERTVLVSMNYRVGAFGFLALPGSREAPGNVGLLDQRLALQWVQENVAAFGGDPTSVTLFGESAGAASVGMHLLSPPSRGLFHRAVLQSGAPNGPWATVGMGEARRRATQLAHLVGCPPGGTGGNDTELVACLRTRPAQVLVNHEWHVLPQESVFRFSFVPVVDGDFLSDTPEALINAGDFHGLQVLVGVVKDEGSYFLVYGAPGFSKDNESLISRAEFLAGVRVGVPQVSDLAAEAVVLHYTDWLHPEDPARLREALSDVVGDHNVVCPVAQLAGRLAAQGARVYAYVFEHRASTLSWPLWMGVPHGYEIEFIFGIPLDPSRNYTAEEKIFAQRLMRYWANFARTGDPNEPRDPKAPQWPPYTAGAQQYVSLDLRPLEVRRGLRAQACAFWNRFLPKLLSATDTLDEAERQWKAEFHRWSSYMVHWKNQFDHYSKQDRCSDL

| Compound | Percent Inhibition of α-Amylase (Mean ± S.E.M) (α-amylase; 62.5 μg/mL) | Percent Inhibition of α-Amylase (Mean ± S.E.M) (α-amylase; 125 μg/mL) | Percent Inhibition of α-Amylase (Mean ± S.E.M) (α-amylase; 250 μg/mL) | Percent Inhibition of α-Amylase (Mean ± S.E.M) (α-amylase; 500 μg/mL) | Percent Inhibition of α-Amylase (Mean ± S.E.M) (α-amylase; 1000 μg/mL) | DPPH IC50 [1] | DPPH Percent Inhibition (Mean ± S.E.M) ([1]; 62.5 μg/mL) | DPPH Percent Inhibition (Mean ± S.E.M) ([1]; 125 μg/mL) | DPPH Percent Inhibition (Mean ± S.E.M) ([1]; 250 μg/mL) | DPPH Percent Inhibition (Mean ± S.E.M) ([1]; 500 μg/mL) | DPPH Percent Inhibition (Mean ± S.E.M) ([1]; 1000 μg/mL) | ABTS IC50 [2] | ABTS Percent Inhibition (Mean ± S.E.M) ([2]; 62.5 μg/mL) | ABTS Percent Inhibition (Mean ± S.E.M) ([2]; 125 μg/mL) | ABTS Percent Inhibition (Mean ± S.E.M) ([2]; 250 μg/mL) | ABTS Percent Inhibition (Mean ± S.E.M) ([2]; 500 μg/mL) | ABTS Percent Inhibition (Mean ± S.E.M) ([2]; 1000 μg/mL) | α-Amylase IC50 (α-amylase) | IC50 [3, 7] | IC50 [4] | also measured |
| --- | --- | --- | --- | --- | --- | --- | --- | --- | --- | --- | --- | --- | --- | --- | --- | --- | --- | --- | --- | --- | --- |
| C[C@H]1O[C@H](O[C@H]2[C@H](O)[C@@H](O)[C@@H](O[C@H]3[C@H](O)[C@@H](O)C(O)O[C@@H]3CO)O[C@@H]2CO)[C@H](O)[C@@H](O)[C@@H]1N[C@H]1C=C(CO)[C@@H](O)[C@H](O)[C@H]1O (stereo partly shown) [Acarbose, reference compound] | 48.13 ± 2.09% | 57.03 ± 1.19% | 66.37 ± 1.18% | 77.11 ± 1.41% | 92.12 ± 0.83% | – | – | – | – | – | – | – | – | – | – | – | – | – | – | – | Percent Inhibition of α-Glucosidase (Mean ± S.E.M) (α-glucosidase): 93.72 ± 1.03% and 67.16 ± 1.58% and 58.73 ± 1.09% and 48.76 ± 2.20% |
| O=C1O[C@H]([C@@H](O)CO)C(O)=C1O [Ascorbic Acid, reference compound] | – | – | – | – | – | 35 µg/mL | 55.12 ± 1.30% | 65.35 ± 1.08% | 78.63 ± 1.48% | 87.87 ± 1.64% | 94.14 ± 1.76% | 35 µg/mL | 55.41 ± 1.39% | 63.30 ± 2.75% | 75.14 ± 3.16% | 83.45 ± 2.26% | 93.07 ± 0.53% | – | – | – | – |
| CC(C)CCCCC1CC2CC(C)(C)C3C4CC(C)(C)C5CC(O)CC(C)C5C4CC(C)C3C2C1 (stereo not shown) [Compound IX, 5,5,7,7,11,13-hexamethyl-2-(5-methylhexyl)icosahydro-1H-cyclopenta[a]chrysen-9-ol] | 40.13 ± 1.27 % | 50.61 ± 1.52 % | 59.14 ± 0.82 % | 65.13 ± 1.43 % | 70.21 ± 1.91 % | 76 µg/mL | 47.85 ± 2.61% | – | 64.11 ± 2.91% | 72.19 ± 2.17% | 80.21 ± 040 ^ns percent | 76 µg/mL | 47.83 ± 2.26% | 57.19 ± 2.01% | 62.24 ± 2.30% | 71.29 ± 1.11% | 79.23 ± 1.01% | 122 µg/mL | 186 µM | 186 µM | inhibition at 250 µg/mL [3]: 63.1 ± 1.51%; inhibition at 500 µg/mL [3]: 71.3 ± 1.37%; inhibition at 1000 µg/mL [3]: 78.11 ± 0.61%; inhibition at 125 µg/mL [4]: 55.4 ± 1.01%; inhibition at 250 µg/mL [4]: 63 ± 1.45%; inhibition at 500 µg/mL [4]: 70.2 ± 0.71%; inhibition at 1000 µg/mL [4]: 78 ± 2.62%; inhibition at 62.5 µg/mL [5]: 45.9 ± 1.26%; inhibition at 62.5 µg/mL [6]: 46 ± 1.71% |
| CCCCCCCCCCCCCCCCCCCCCC(=O)O [Compound X, docosanoic acid] | 40.01 ± 2.06 ^ns % | 50.11 ± 1.31 % | 59.11 ± 2.13 % | 65.19 ± 1.28 % | – | 95 µg/mL | 46.17 ± 3.01% | – | 60.61 ± 0.71% | 69.19 ± 2.27% | 78.81 ± 2.10% | 95 µg/mL | 46.01 ± 1.06% | 54.13 ± 0.31% | 60.11 ± 1.90% | 68.99 ± 1.88% | 78.03 ± 1.51% | 125 µg/mL | – | 382 µM | IC50 [3]: 382 µM; inhibition at 125 µg/mL [3]: 49.3 ± 2.32%; inhibition at 250 µg/mL [3]: 56.1 ± 1.51%; inhibition at 500 µg/mL [3]: 62.5 ± 1.37%; inhibition at 1000 µg/mL [3]: 70.1 ± 1.4%; inhibition at 125 µg/mL [4]: 49.13 ± 0.31%; inhibition at 250 µg/mL [4]: 55.5 ± 0.8%; inhibition at 500 µg/mL [4]: 62 ± 0.78%; inhibition at 1000 µg/mL [4]: 69.1 ± 2.01%; inhibition at 62.5 µg/mL [5]: 43 ± 1.06%; inhibition at 62.5 µg/mL [6]: 43.2 ± 3.01% |
| O=COC(O)O [Compound XI, methanetriol mano formate] | 46.98 ± 2.49 % | 54.13 ± 2.17 % | 63.21 ± 1.69 % | 70.91 ± 2.11 % | 81.90 ± 0.73 % | 95 µg/mL | 46.22 ± 0.60% | 54.15 ± 1.28% | 62.13 ± 1.08% | 71.17 ± 2.14% | 80.41 ± 2.16% | 95 µg/mL | 46.23 ± 1.49% | 54.30 ± 1.15% | 61.04 ± 2.38% | 70.15 ± 1.16% | 79.17 ± 0.53% | 98 µg/mL | 815 µM | 815 µM | inhibition at 250 µg/mL ([3]; 250 μg/mL, n = 3): 64.5 ± 3.04%; inhibition at 500 µg/mL ([3]; 500 μg/mL, n = 3): 71.2 ± 2.42%; inhibition at 1000 µg/mL ([3]; 1000 μg/mL, n = 3): 81.4 ± 2.51%; inhibition at 125 µg/mL ([4]; 125 μg/mL, n = 3): 57.1 ± 1.31%; inhibition at 250 µg/mL ([4]; 250 μg/mL, n = 3): 63.7 ± 2.24%; inhibition at 500 µg/mL ([4]; 500 μg/mL, n = 3): 71.2 ± 1.31%; inhibition at 1000 µg/mL ([4]; 1000 μg/mL, n = 3): 81.3 ± 1.41%; inhibition at 62.5 µg/mL ([5]; 62.5 μg/mL, n = 3): 48 ± 2.06%; inhibition at 62.5 µg/mL ([6]; 62.5 μg/mL, n = 3): 48.2 ± 3.34% |
| CC(C)C(C(=O)O)c1ccc(C(C(=O)O)C(C)C)cc1 (stereo not shown) [Compound XII] | 47.51 ± 1.19 % | 56.10 ± 2.05 % | 66.94 ± 1.11 % | 74.25 ± 1.06 % | 79.07 ± 1.43 % | 60 µg/mL | 51.02 ± 1.30% | 61.75 ± 1.78% | 71.13 ± 1.31% | 78.17 ± 1.04% | 86.54 ±2.16% | 62 µg/mL | 50.51 ± 1.19% | 60.20 ± 3.05% | 71.44 ± 2.11% | 77.15 ± 1.06% | 86.07 ± 1.43% | 92 µg/mL | 198 µM | 216 µM | inhibition at 125 µg/mL ([3]; 125 μg/mL, n = 3): 61.2 ± 1.71%; inhibition at 250 µg/mL ([3]; 250 μg/mL, n = 3): 69.3 ± 1.38%; inhibition at 500 µg/mL ([3]; 500 μg/mL, n = 3): 76.2 ± 1.01%; inhibition at 1000 µg/mL ([3]; 1000 μg/mL, n = 3): 84.4 ± 1.36%; inhibition at 125 µg/mL ([4]; 125 μg/mL, n = 3): 64.4 ± 1.85%; inhibition at 250 µg/mL ([4]; 250 μg/mL, n = 3): 77.1 ± 2.26%; inhibition at 500 µg/mL ([4]; 500 μg/mL, n = 3): 85.1 ± 2.06%; inhibition at 1000 µg/mL ([4]; 1000 μg/mL, n = 3): 93.89 ± 0.81%; inhibition at 62.5 µg/mL ([5]; 62.5 μg/mL, n = 3): 50.4 ± 1.11%; inhibition at 62.5 µg/mL ([6]; 62.5 μg/mL, n = 3): 52.5 ± 1.47% |
| COc1ccc2c3c1O[C@H]1C[C@@H](O)C=C[C@@]31CCN(C)C2 [Galanthamine, reference compound] | – | – | – | – | – | – | – | – | – | – | – | – | – | – | – | – | – | – | – | – | inhibition at 125 µg/mL [4]: 64.4 ± 1.85%; inhibition at 500 µg/mL [4]: 85.1 ± 2.06%; inhibition at 1000 µg/mL [4]: 93.89 ± 0.81% |
